Laboratory results as given in patent US9232793B2, “Methods of inhibiting microbial growth using deoxyaldohexoses” (LVMH Recherche, priority 2008, dated 2016).

What was measured:
Assay in all cases: Agar diffusion antimicrobial test, MIC determination
Format in all cases: cell-based
[1] = system: Burkholdena cepacia CIP 103924; settings: B. cepacia
Experimental: (§1) The culture medium at pH 6, pH 7 and pH 8, inoculated beforehand with the test strains, is poured into Petri dishes, with one pH and one strain per dish. After solidification, 100 μl are deposited for each of the concentrations of the test substance, as well as a solvent control and a positive control. After incubation, the inhibition diameter is measured after diffusion of the test product into the agar, and there is deduced therefrom the minimum bacteriostatic concentration (MIC), which is the lowest concentration of product inhibiting the multiplication of the microbes. The test strains are the following: • Aspergillus niger IP 1431.83, • Candida albicans IP 48.72, • Enterococcus hirae CIP 58.55, • Staphylococcus aureus CIP 4.83, • Burkholdena cepacia CIP 103924, • Pseudomonas aeruginosa CIP 82.1118. For each strain, 120 ml of each of the three Mueller Hinton media pH 6, pH 7 and pH 8 are inoculated with 1.2 ml of each suspension of microbe having a titre of 10^7 CFU/ml in order to obtain a titre equal to 10^5 CFU/ml. 15 ml are poured into each dish, with one dish per medium and per strain. After solidification, three steel cylinders are placed at the surface of each dish. 100 mg (approximately) of the powder consisting of the test alkyl glycoside are taken up in 1 ml of methanol (solution A at 10%). Next, the concentration range is prepared as described below: • Solution B1 at 1%: 300 μl of solution A+2.7 ml of sterile water, • Solution B2 at 0.5%: 300 μl of solution A+5.7 ml of sterile water, • Solution B3 at 0.1%: 1 ml of solution B1+9 ml of sterile water, • Solution B4 at 0.05%: 1 ml of solution B2+9 ml of sterile water. Only solutions B2, B3 and B4 are tested during the trial. 100 μl (pH 6, pH 7 and pH 8) of the following solutions are introduced into each cylinder: • Methanol control (prepared for each strain at pH 7), • Solution B4 at 0.05%, • Solution B3 at 0.1%, • Solution B2 at 0.5%. Incubation at 37° C.±1° C. for 24 hours (48 h for Enterococcus hirae). The inhibition of growth of the microbes leads to measurement, using a vernier caliper, in millimeters, of an inhibition diameter after diffusion of the test product into the agar. The minimum bacteriostatic concentration (MIC) is given by the lowest concentration of product which inhibits the multiplication of the microbes. In the case where the highest concentration ([…]) is not active, this is noted (>500). The tests were carried out on various strains at pH 7, for alkyl glycoside concentrations equal to 0.05%, 0.1% and 0.5% by weight.

[2] = system: Aspergillus niger IP 1431.83; settings: A. niger
Experimental: as §1

[3] = system: Candida albicans IP 48.72; settings: C. albicans
Experimental: as §1

[4] = system: Enterococcus hirae CIP 58.55; settings: E. hirae
Experimental: as §1

[5] = system: Staphylococcus aureus CIP 4.83; settings: S. aureus
Experimental: as §1

[6] = system: Pseudomonas aeruginosa CIP 82.1118; settings: P. aeruginosa
Experimental: as §1

Compound	MIC ([1]; pH 7) [µg/mL]	MIC ([1]; pH 7, value in brackets) [µM]	MIC ([2]; pH 7) [µg/mL]	MIC ([2]; pH 7, value in brackets) [µM]	MIC ([3]; pH 7) [µg/mL]	MIC ([3]; pH 7, value in brackets) [µM]	MIC ([4]; pH 7) [µg/mL]	MIC ([4]; pH 7, value in brackets) [µM]	MIC ([5]; pH 7) [µg/mL]	MIC ([5]; pH 7, value in brackets) [µM]	MIC ([6]; pH 7) [µg/mL]	MIC ([6]; pH 7, value in brackets) [µM]
CCCCCCCCO[C@H]1O[C@@H](C)[C@@H](O)[C@@H](O)[C@@H]1O [Fuc-8, octyl beta-L-fucoside]	> 500	> 1810	50	181	100	362	50	181	50	181	> 500	> 1810
CCCCCCCCCCCCO[C@H]1O[C@@H](C)[C@@H](O)[C@@H](O)[C@@H]1O [Fuc-12, dodecyl beta-L-fucoside]	> 500	> 1500	50	150	> 500	> 1500	50	150	50	150	> 500	> 1500
CCCCCCCCOC1O[C@@H](C)[C@H](O)[C@@H](O)[C@H]1O (stereo partly drawn) [Rha-8, octyl L-rhamnoside]	100	362	50	181	100	362	50	181	50	181	100	362
CCCCCCCCCCCCOC1O[C@@H](C)[C@H](O)[C@@H](O)[C@H]1O (stereo partly drawn) [Rha-12, dodecyl L-rhamnoside]	100	301	50	150	50	150	50	150	50	150	50	150
